Reference: patent US11311512B2, “Lymph directing prodrugs” (priority 2014, dated 2022)
Where “and” joins values, the source holds several entries; their conditions need not be identical. Identical values can stand only once. Like-named read-outs stand apart in the source and are kept apart here.

Legend:
[1] = Pharmacokinetic study in rats, testosterone plasma concentrations after oral gavage; settings: testosterone in plasma, oral gavage; for AUC0-24 h fold increase compared with TU group: SD female rats, dose-normalized; for Tmax / AUC0-24 h / Cmax: conscious carotid artery cannulated SD female rats; for AUC0-24 h / Cmax: normalized to 2 mg/kg equivalent testosterone dose
Description: In order to assess the oral bioavailability of the compounds of the invention, pharmacokinetic studies were conducted in rats and dogs. […] The rats were then allowed to regain consciousness and fasted overnight prior to the commencement of experiments with free access to water. […] The oral formulation of Compound 2 contained 3 mg of the compound, 20 mg oleic acid and 12.5 mg Tween 80 dispersed in 1 mL PBS. Blood samples were collected from the carotid artery cannula from 5 min prior to administration up to 24 h post-dosing and centrifuged at 5000 rpm for 5 min to separate plasma. […] Plasma samples were stored at −80° C. prior to assay by HPLC-MS-MS. In this case samples were assayed for free drug (i.e. non-glyceride associated drug) and were not hydrolysed prior to assay (as was the case with the lymph samples).
FIG. 12 illustrates dose-normalized testosterone plasma concentrations following oral gavage of formulations to conscious, carotid artery cannulated female SD rats. Formulations contained 1 mg of TU, or 2 mg of compounds of the invention containing testosterone dispersed in 40 mg oleic acid, 25 mg Tween 80 and 2 ml PBS. Doses are normalized to a 2 mg/kg equivalent dose of testosterone. Data are shown as mean±SEM for all groups (n=4 or 3 for each group). The embedded figure is the plot of the dose-normalized plasma AUC0-24h (nmol×h/L) of testosterone in the form of a bar graph.

[2] = In vitro hydrolysis by rat digestive fluid (bile and pancreatic fluid); format: in vitro ADME; settings: 37° C., drug-loaded lipid formulation, up to 180 min
Description: In vitro hydrolysis of MPA related compounds was performed via incubation with rat digestive fluid. Rat digestive fluid was collected from anesthetized rats via cannulation of the common bile-pancreatic duct immediately prior to the entry of the duct into the duodenum (i.e. below the point of entry of pancreatic secretions). This allowed simultaneous collection of bile and pancreatic fluid. The digestive fluid was collected continuously for 2 h, during which time a blank lipid formulation (prepared as described in the rat lymphatic transport studies but without the addition of drug) was infused into the duodenum at a rate of 2.8 ml/h to mimic conditions following drug administration. Bile and pancreatic fluid was maintained at 37° C. and used within 0.5 h of collection for in vitro prodrug hydrolysis experiments. The hydrolysis experiments were conducted via incubation (at 37° C.) of 0.375 mL of rat digestive fluid with 0.625 ml of the drug-loaded lipid formulations (as described in the rat lymphatic transport studies). The volume ratio of digestive fluid to formulation mimicked the flow rate of bile and pancreatic fluid (˜1.5 mL/h) and the infusion rate of the intraduodenal formulations (2.8 mL/h) during the in vivo lymphatic transport studies. Aliquots of 10 μL (samples taken at 0, 2, 5, 10, 15, 30, 60, 90, 120, 180 min) were added to 990 μL of acetonitrile:water (4:1, v/v) to stop lipolysis, vortexed for 1 min and centrifuged at 4500 g for 5 min to precipitate proteins prior to analysis. The supernatant was analysed by HPLC-MS for residual compound concentrations, and the potential products of compound hydrolysis were analysed.
On incubation with digestive enzymes the monoglycerides forms of the prodrugs are formed very rapidly. The stability in simulated intestinal conditions is therefore better assessed by the stability of the monoglycerides form that is generated by the initial digestion process. The monoglycerides form must remain intact to be absorbed and re-esterified in the enterocyte prior to entry into the lymphatics. […]

[3] = for Transport of total TST derivatives in lymph (% of dose): mesenteric lymph-duct cannulated female SD rats; for Fold increase (compared with control group dosed with TU): lymphatic transport of total TST derivatives; for Fold increase (compared with MPA dosed group): lymphatic transport of total MPA derivatives
Description: Lipid formulations containing the compound of interest were then administered to the animals, the lymph collected and drug concentrations in the lymph subsequently quantified.
Lipid-based formulations of the compounds of the invention or control compounds were prepared as previously described (Trevaskis, N. L. et al., Pharmaceutical Research, 2005, 22(11), 1863-1870). Briefly, approximately 2 mg of the compound (1 mg in the case of Compound 35 and Compound 1), 40 mg oleic acid and 25 mg Tween 80 were mixed in a glass vial until equilibrated (gentle heat (below 50° C.) may be applied for a short period).
[…] This was to eliminate the potential for the relatively high and variable levels of endogenous testosterone in male rats interfering with the quantification of exogenously dosed testosterone. Rats (240-320 g) were maintained on a standard diet and fasted overnight with free access to water prior to experiments. Anaesthetised rats were placed on a heated pad at 37° C. and cannulas were inserted into the duodenum (for formulation administration and rehydration), mesenteric lymph duct (for lymph collection) and carotid artery (for blood collection) as previously described (Edwards et al. Advanced Drug Delivery Reviews 2001, 50(1), 45-60). Post-surgery, rats were re-hydrated for 0.5 h via intraduodenal infusion of normal saline at 2.8 mL/h. The lipid formulations were infused into the duodenum at 2.8 mL/h for 2 h, after which the infusion was changed to 2.8 mL/h normal saline for the remainder of the experiment. Lymph was continuously collected for 6 to 8 h into pre-weighed Eppendorf tubes containing 10 μL of 1,000 IU/mL heparin. The collection tubes were changed hourly and lymph flow was measured gravimetrically. Aliquots of hourly lymph samples were stored at −80° C. prior to assay.
Drug concentration in lymph is expressed as total drug and includes free drug and drug associated with different glycerides. This is assayed by hydrolysis of lymph (to liberate drug from any re-esterified glycerides) prior to assessment of free drug.
FIG. 1 illustrates the cumulative lymphatic transport of total testosterone related derivatives (% of administered dose) versus time in anaesthetised mesenteric lymph duct cannulated female SD rats following intraduodenal infusion of formulations from 0 to 2 h. Each Formulation contained 2 mg of the exemplified compound or the control, testosterone undecanoate (TU), dispersed in 40 mg oleic acid, 25 mg Tween 80 and 5.6 ml PBS.

[4] = cited from earlier work
[5] = Pharmacokinetic study in greyhound dogs, testosterone plasma concentrations after oral administration; format: in vivo; settings: fed state
Description: For the dog studies, female greyhound dogs were held in a large animal research facility for at least 5 days prior to the commencement of studies. The dogs were allowed to acclimatise for at least 4 days prior to commencing the study. The dogs were fasted for 12 h up to 30 min prior to drug administration. For the fed state studies (n=4 for TU or Compound 13), dogs received 680 g of standard commercial dog food containing 5% fat min prior to drug administration. In the fasted study (n=1 for Compound 13), the dog remained fasted until after 4 h post-dose. Water was available ad libitum throughout the study for all dogs. On the study day, a 20 gauge intravenous catheter was inserted into a cephalic vein to allow blood sampling. The dogs were free to move around (not restrained) after cannulation. For the fed state studies, Andriol Testocaps (the commercial TU product) or Compound 13 was given to the dogs. Andriol Testocaps were supplied by Merck Sharp & Dohme (Australia) Pty Limited and were formulated as soft gelatin capsule containing a 12.0% (w/w) solution of TU in lauroglycol FCC/castor oil [40:60% (w/w)] with the individual capsule composition being 40 mg of TU, lauroglycol FCC, castor oil, gelatin, glycerol, and sunset yellow (E110). Compound 13 was prepared in a long-chain lipid based self-emulsifying drug delivery system (SEDDS) that consisted of 30.5% w/w soybean oil, 30.5% w/w Maisine 35-1, 31.6% w/w Cremophor EL and 7.4% w/w ethanol. Formulations were filled into hard gelatin capsules. Two capsules of Andriol Testocaps containing 80 mg TU or two capsules of Compound 13 containing a total dose of 90 mg Compound 13 dissolved in 2 g of the SEDDS formulation were administrated to the fed greyhound dog by placing the capsules as far posterior to the pharynx as possible, closing the mouth and rubbing the throat to stimulate swallowing. Subsequently 50 mL of water was administered orally via a syringe. Two capsules of Compound 13 formulation were also administrated to the fasted dogs for fasted state studies. After oral administration, blood samples (approx. 3 mL each) were taken via the cephalic vein cannula from 5 min prior to administration up to 10 hours post-dosing. The patency of the catheters was maintained by flushing with a small volume of heparinised saline (1-2 IU/mL) after each blood sample was withdrawn. Blood samples at 24 h were taken by venepuncture. Plasma was separated by centrifugation and aliquots of each plasma sample were transferred into eppendorf tubes and store at −80° C. prior to analysis by LC-MS-MS.

[6] = anaesthetised, intraduodenal infusion 0-2 h, cumulative over 8 h
[7] = female SD rats, intraduodenal infusion
[8] = anaesthetised, mesenteric lymph-duct cannulated male SD rats, intraduodenal infusion 0-2 h, cumulative over 8 h
[9] = male SD rats, intraduodenal infusion

| Compound | AUC0-24 h fold increase compared with TU group [1] [fold] | Tmax [1] [h] | AUC0-24 h [1] [nM·h] | Cmax [1] [nM] | stability of the monoglyceride form during in vitro incubation with freshly collected rat bile and pancreatic fluid [2] | Transport of total TST derivatives in lymph (% of dose) [3, 6] | lymphatic transport, fold higher than straight chain counterpart Compound 10 [3, 7] | Fold increase (compared with control group dosed with TU) [3, 7] [fold] | Transport of total MPA derivatives in lymph (% of dose) [3, 8] | Fold increase (compared with MPA dosed group) [3, 9] [fold] | Transport of total MPA derivatives in lymph (% of dose) ([3]; male SD rats, intraduodenal infusion, co-administration with 0.6 mg of JZL184 and 9 μg of orlistat) | bioavailability of testosterone after oral administration of the undecanoate ester [4] [%] | AUC0-24 h fold increase compared with TU group ([5]; greyhound dogs, dose-normalized) [fold] | Cmax ([5]; oral capsules, conscious greyhound dogs, normalized to 2 mg/kg equivalent testosterone dose, TU as Andriol Testocaps, Compound 13 in SEDDS) [nM] | Tmax ([5]; oral capsules, greyhound dogs) [h] | AUC0-24 h ([5]; oral capsules, greyhound dogs, normalized to 2 mg/kg equivalent testosterone dose) [nM·h] |
| --- | --- | --- | --- | --- | --- | --- | --- | --- | --- | --- | --- | --- | --- | --- | --- | --- |
| CCCCCCCCCCCCCCCC(=O)OCC(COC(=O)CCCCCCCCCCCCCCC)OC(=O)CC(C)CC(=O)O[C@H]1CC[C@H]2[C@@H]3CCC4=CC(=O)CC[C@]4(C)[C@H]3CC[C@]12C (some centres unmarked) [Compound 18] | 0.3 | 1.3 ± 0.2 | 2.0 ± 0.1 | 1.8 ± 0.3 | significantly stabilised the monoglyceride intermediates | 28.0 ± 3.4 % of dose | approximately 2 fold | 14.9 |  |  |  |  |  |  |  |  |
| CCCCCCCCCCCCCCCC(=O)OCC(COC(=O)CCCCCCCCCCCCCCC)OC(=O)CCCCOC(=O)CC/C(C)=C/Cc1c(O)c2c(c(C)c1OC)COC2=O [Compound 31] |  |  |  |  | relatively rapidly degraded |  |  |  | 8.2 % of dose and 8.2 ± 1.3 % of dose | 48.9 |  |  |  |  |  |  |
| CCCCCCCCCCCCCCCC(=O)OCC(COC(=O)CCCCCCCCCCCCCCC)OC(=O)CCCCCOC(=O)CC/C(C)=C/Cc1c(O)c2c(c(C)c1OC)COC2=O [Compound 32] |  |  |  |  | relatively rapidly degraded |  |  |  | 9.6 % of dose and 9.6 ± 1.4 % of dose | 57.5 | 18.8 % of dose |  |  |  |  |  |
| CCCCCCCCCCC(=O)O[C@H]1CC[C@H]2[C@@H]3CCC4=CC(=O)CC[C@]4(C)[C@H]3CC[C@]12C [TU, testosterone undecanoate, reference compound] | 1.0 | 1.5 ± 0.0 | 6.8 ± 0.4 | 5.6 ± 0.5 |  | 1.9 ± 0.3 % of dose |  | 1.0 |  |  |  | < 5 | 1 | 75.4 ± 12.8 | 1.8 ± 0.1 | 141.1 ± 22.1 |
